Experiments:
CDK4/Cyclin D3 = CDK4/Cyclin D3 (Homo sapiens, UniProt P11802); test: Inhibition of recombinant human full-length N-terminal GST-fused CDK4 (1 to 303 residues)/GST-tagged CyclinD3 (1 to 292 residues) expressed in baculovirus expression system using ULight-elF4E-binding protein 1 peptide as substrate measured after 30 mins by LANCE assay
CDK6/Cyclin D3 = CDK6/Cyclin D3 (Homo sapiens, UniProt Q00534); test: Inhibition of human full-length N-terminal GST tagged CDK6 (1 to 326 residues)/GST-tagged cyclinD3 (1 to 292 residues) expressed in baculovirus expression system using ULight-elF4E-binding protein 1 peptide as substrate measured after 30 mins by LANCE assay
CDK6/Cyclin D3, sequence (Q00534 whole entry, looked up, the tested form may be a part): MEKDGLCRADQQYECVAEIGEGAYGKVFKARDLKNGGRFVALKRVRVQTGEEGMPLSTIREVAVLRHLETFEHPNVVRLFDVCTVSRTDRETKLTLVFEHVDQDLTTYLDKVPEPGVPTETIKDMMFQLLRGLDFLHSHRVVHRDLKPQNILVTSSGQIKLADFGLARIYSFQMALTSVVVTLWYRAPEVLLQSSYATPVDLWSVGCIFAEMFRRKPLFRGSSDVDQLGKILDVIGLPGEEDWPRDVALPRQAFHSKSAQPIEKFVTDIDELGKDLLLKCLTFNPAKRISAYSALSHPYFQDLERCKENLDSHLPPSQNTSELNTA

COLO 205 [1] = test: Antiproliferative activity against human COLO 205 cells assessed as cell growth inhibition measured after 4 to 6 days by celltiter-glo luminescent cell viability assay; type: functional, cell-based
U-87 MG = test: Antiproliferative activity against human U-87 MG cells assessed as cell growth inhibition measured after 4 to 6 days by celltiter-glo luminescent cell viability assay; type: functional, cell-based, U-87MG ATCC
COLO 205 [2] = test: Cell cycle arrest in human COLO 205 cells assessed as accumulation at G0/G1 phase at 200 nM measured after 24 hrs by propidium iodide staining based flow cytometry relative to control; type: functional
MDA-MB-468 = test: Antiproliferative activity against human MDA-MB-468 cells assessed as cell growth inhibition measured after 4 to 6 days by celltiter-glo luminescent cell viability assay; type: functional, cell-based

CDK4/Cyclin D3, sequence (P11802 whole entry, the tested form may be a part): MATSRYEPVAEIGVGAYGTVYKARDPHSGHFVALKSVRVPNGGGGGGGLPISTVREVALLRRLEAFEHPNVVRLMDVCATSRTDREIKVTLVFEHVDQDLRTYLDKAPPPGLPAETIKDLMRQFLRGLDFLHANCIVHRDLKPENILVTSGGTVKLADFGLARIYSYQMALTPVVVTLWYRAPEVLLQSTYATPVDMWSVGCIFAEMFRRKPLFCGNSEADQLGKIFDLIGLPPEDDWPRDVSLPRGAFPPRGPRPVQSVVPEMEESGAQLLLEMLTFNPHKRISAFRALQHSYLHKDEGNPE
CDK4/Cyclin D3, sequence (P30281 whole entry, further chain, the tested form may be a part): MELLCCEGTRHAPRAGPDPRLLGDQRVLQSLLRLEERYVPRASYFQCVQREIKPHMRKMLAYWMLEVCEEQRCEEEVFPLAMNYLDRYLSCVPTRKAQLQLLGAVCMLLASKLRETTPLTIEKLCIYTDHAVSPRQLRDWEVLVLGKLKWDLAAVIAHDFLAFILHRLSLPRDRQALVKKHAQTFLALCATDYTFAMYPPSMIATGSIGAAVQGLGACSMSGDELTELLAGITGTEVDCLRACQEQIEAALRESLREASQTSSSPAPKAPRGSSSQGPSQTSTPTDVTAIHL

Row | Compound | IC50 (CDK4/Cyclin D3) [nM] | IC50 (CDK6/Cyclin D3) [nM] | IC50 (COLO 205 [1]) [nM] | IC50 (U-87 MG) [nM] | Activity (COLO 205 [2]) [%] | IC50 (MDA-MB-468) [nM]
1 | CC(=O)c1c(C)c2cnc(Nc3ccc(N4CCNCC4)cc3)nc2n2cc(C3CCCCC3)nc12 | 18.9 | 22.2 | 121 | 122 | – | –
2 | CC(=O)c1c(C)c2cnc(Nc3ccc(N4CCNCC4)cc3)nc2n2cc(-c3ccccc3)nc12 | 13.5 | 32.8 | 474 | 412 | – | –
3 | CC(=O)c1c(C)c2cnc(Nc3ccc(N4CCNCC4)cn3)nc2n2cc(C(C)C)nc12 | 3.7 | 3.7 | 290 | 291 | – | –
4 | Cc1cn2c(n1)c(C#N)c(C)c1cnc(Nc3ccc(N4CCNCC4)cc3)nc12 | 26.5 | 33.6 | – | – | – | –
5 | Cc1cn2c(n1)c(C#N)c(C)c1cnc(Nc3ccc(Cl)cc3)nc12 | 271 | 280 | – | – | – | –
6 | Cc1cn2c(n1)c(C#N)c(C)c1cnc(N)nc12 | 592 | 3090 | – | – | – | –
7 | Cc1c(C#N)c2nc(C(C)C)cn2c2nc(Nc3ccc(N4CCNCC4)cc3)ncc12 | 10.3 | 9 | – | 585 | – | –
8 | CC(=O)c1c(C)c2cnc(Nc3ccc(CN4CCNCC4)cn3)nc2n2cc(C(C)C)nc12 | 2.2 | 2.5 | 356 | 165 | – | –
9 | CC(=O)c1c(C)c2cnc(Nc3ccc(C(=O)N4CCNCC4)cn3)nc2n2cc(C(C)C)nc12 | 5.3 | 5.6 | 932 | 380 | – | –
10 | CC(=O)c1c(C)c2cnc(Nc3ccc(N4CCNCC4)cn3)nc2n(C2CCCC2)c1=O [PALBOCICLIB] | – | – | 301 | 345 | 95.7 | 5420
11 | CC(=O)c1c(C)c2cnc(Nc3ccc(N4CC5(CCOCC5)C4)cn3)nc2n2cc(C(C)C)nc12 | 9.9 | 25.7 | 534 | 539 | – | –
12 | CC(=O)c1c(C)c2cnc(Nc3ccc(N4CCC(N(C)C)C4)cn3)nc2n2cc(C(C)C)nc12 (stereo unspecified) | 4.5 | 4.3 | 1420 | 536 | – | –
